Test results as given in paper PMC4057896 (Journal of molecular biology, 2014).
“Also recorded” adds a separate entry of the source.

Experiments:
hexon trimer [1] = experiment: Native MS of endogenous hexon-pVIn complexes from heat-disrupted virions; format: binding, human adenovirus (Ad5F35)
hexon trimer [2] = experiment: Native MS of hexon-pVIn reconstituted from purified hexon and synthetic pVIn; format: binding, human adenovirus (Ad5 hexon)
hexon trimers = conditions: in vitro; ref [15]; cited from earlier work
[3] = 150 mM ammonium acetate pH 5, released fraction
[4] = 1:2 hexon:pVIn, pH range 4–9, native MS, triplicate

Substance	binding of pVIn to hexon trimer at pH 5 (hexon trimer [1]; [3])	pVIn molecules/hexon trimer at pH 5 (hexon trimer [1]; [3])	binding of pVIn to hexon trimer at pH 9 (hexon trimer [1]; 150 mM ammonium acetate pH 9, released fraction)	strength of hexon-pVIn interaction at cytosolic pH (hexon trimer [2]; [4])	strength of hexon-pVIn interaction at endosomal pH (hexon trimer [2]; [4])	dissociation of hexon-pVIn towards pH 8 (hexon trimer [2]; 1:2 hexon:pVIn, pVIn 1 µM, hexon trimer 0.5 µM, native MS, 150 mM ammonium acetate, triplicate)	residual endogenous pVIn bound to purified hexons (hexon trimer [2]; hexons isolated from virus-infected cells, no synthetic pVIn added, native MS)	affinity for hexon trimers (hexon trimers)
MEDINFASLAPRHGSRPFMGNWQDIGTSNMSGG [pVIn]	nearly complete binding; also recorded: fully retained on hexon trimers	3 pVIn molecules/hexon trimer	only free hexon trimers were recovered and detected	relatively weak	strongest	near-complete dissociation	approximately 3 % of maximum occupancy	–
pVI: 250 aa precursor of human adenovirus minor capsid protein VI	–	–	–	–	–	–	–	high affinity; also recorded: nanomolar affinity
